Where “and” joins values, the source holds several entries; their conditions need not be identical. Equal entries are not always repeated. Where two headings read alike, the source gives them in different places.
Assays:
[1] = Supersaturation dissolution kinetics of hot melt extrusion formulations; type: physicochemical; details: processing conditions na
Experimental: Supersaturation dissolution kinetics provides valuable information regarding the performance of different matrix polymers in combination with an active agent. In particular, such studies could provide insight on which formulations could provide enhanced bioavailability. Accordingly, dissolution studies were conducted on the following three HME formulations: Kollidon® VA 64 (Copovidone), HPMCAS-MF (Hypromellose Acetate Succinate), and Kollidon® K30 (Povidone, PVP).
Briefly, the target concentration of the dissolution sample solution was 1.1 mg/mL, or ten times the estimated sink dissolution sample solution concentration produced by a 100 mg dose when dissolved in 900 mL of dissolution media. Triplicate preparations of about 10 mg of extrudate (2 mg of compound 1 in the three HME formulations) were transferred into separate micro-centrifuge tubes. About 1.8 mL of dissolution media was preheated to 37° C. and added to each tube, where the tube was then placed into an incubator shaker at 37° C. and 250 rpm. Samples were centrifuged at 13,000 rpm for one minute, and 25 μL aliquots of the clear supernatant were transferred into HPLC vials and diluted with 1.0 mL of HPLC mobile phase (30%/70% of pH 6.6 buffer/acetonitrile) at 10′ (minutes), 20′, 40′, 1 hr (hour), 1.5 hrs, 2 hrs, 4 hrs, and 24 hrs. An isocratic HPLC method was applied for quantitation against a five point calibration curve in the range of 5.5-220 μg/mL (C18, 5 μm, 4.6×150 mm column, and UV 216 nm detection). The HPLC sample solution target concentration was 27.1 μg/mL.

[2] = pKa of compound 1 (previously determined); type: physicochemical
Source text: Compound 1 has the following previously determined characteristics: […]

[3] = Phase I (Group 2) study of HME or SDD formulations in healthy human subjects, fed (standard meal); type: in vivo; details: 225 mg HME or SDD oral; for half-life: human, plasma, po, 225 mg
Experimental: Bioavailability of the ion channel modulator compound 1 was studied in healthy human subjects using SDD and HME formulations, with subjects in a fed state. The effect the SDD or HME formulation on bioavailability following a single oral dose under fed conditions was thereby evaluated and compared. Safety and tolerability of compound 1 was also evaluated.
This study utilized a single-center, single-dose open-label, 2-group, 2-period randomized crossover design to determine bioavailability following treatment with the SDD or HME formulation under fed conditions. A total of 16 subjects were selected by the criteria described in Example 10.
Subjects were treated with an oral dose of 225 mg HME (as described in Example 8, Table 14) or 225 mg SDD (as described in Example 7) with approximately 8 fluid ounces of water in the fed (standard meal) state. Subjects were randomized between HME and SDD formulations in equal numbers during period 1 of the trial, and, following a washout period, assigned to the opposite formulation during period 2. The fed condition is defined as the state of a subject following an overnight fast of at least 10 hours with a test meal provided 30 minutes prior to administration of the study drug. The subject must completely consume their respective meal before being dosed. Meals were standardized and standard meals were served according to a pre-determined schedule throughout the inpatient portion of the study. A standardized meal derived approximately 35% of total caloric content of the meal from fat, approximately 15-20% from protein, and approximately 45-50% from carbohydrates, with a total caloric content of approximately 400-450 calories. An example test meal would have included ⅝ ounces Cheerios®, 1 egg, 1 strip of bacon, 1 slice of toast with margarine, 6 ounces of low fat milk, and 4 ounces of orange juice. The time of food intake before and after study drug administration was documented. Water was allowed as desired except for one hour before and after drug administration. Outside of these restrictions, subjects in both fed and fasted conditions were provided fluid intake according to the subject's individual needs, with documentation. HME and SDD groups were dosed and evaluated simultaneously.
Treatments of 225 mg HME or SDD were administered on day 1 of period 1 of the trial and subjects were admitted to the clinical research unit (CRU) for four days of inpatient evaluation. Subjects were discharged from the CRU upon completion of assessments on day 4, and reported to the CRU for additional pharmacokinetic blood sampling and safety assessment on days 5 and 6, completing period 1. There was a 7-day washout between the first and second period drug administrations. In the second period, subjects were treated with an oral dose of 225 mg HME or 225 mg SDD in the fed (standard meal) state. The treatment was administered on day 1 of period 2 of the trial and subjects were admitted to the clinical research unit (CRU). Subjects were discharged from the CRU upon completion of assessments on day 4, and reported to the CRU for additional and followup pharmacokinetic blood sampling and safety assessment on days 5, 6, 8, 15, 22, 29, and 36 of period 2.
Pharmacokinetic assessments conducted during each treatment period were performed by the collection of venous blood samples via indwelling catheter or direct venipuncture. The plasma concentrations of the drug was determined for each sample. Concentration of the drug was determined using a validated liquid chromatography coupled with tandem mass (LC/MS/MS) assay, with a lower limit of quantitation (LLOQ) of 0.1 ng/mL. Descriptive statistics were calculated for these parameters and tabulated by formulation and period. Safety of the trial subjects was assessed by the following endpoints: adverse events, vital signs, ECG parameters, laboratory parameters, medical history, and physical examination. […]

For `O=C(CC(c1ccccc1)c1ccccc1)N1CCN(C(c2ccccc2)c2ccccc2)CC1` [Compound 1, 1-(4-benzhydrylpiperazin-1-yl)-3,3-diphenylpropan-1-one], the “AUC0-4 hr (dissolution)” value [1] was 8000 ng·h/mL, the “Tmax (dissolution)” value [1] was 2 h and the “Cmax (dissolution)” value ([1]; 37° C.) was 2645 ng/mL. The pKa [2] was 5.4, the “Half-Life Period 1” value ([3]; period 1, individual subjects) was 617 h and 79 h and 75 h and 270 h and 73 h and 115 h and 112 h and 92 h and 94 h and 163 h and 96 h and 114 h and 72 h and 105 h and 77 h and the “Half-Life Period 2” value ([3]; period 2, individual subjects) was 104 h and 171 h and 176 h and 417 h and 82 h and 106 h and 149 h and 155 h and 137 h and 400 h and 193 h and 98 h and 71 h and 116 h and 114 h. The “Half-Life Ratio” value ([3]; ratio period 1 to period 2, Mean) was 73%, the “Half-Life Ratio” value ([3]; ratio period 1 to period 2, individual subjects) was 76% and 44% and 43% and 65% and 89% and 108% and 75% and 59% and 69% and 41% and 50% and 116% and 101% and 91% and 68% and the half-life ([3]; period 1, Mean, read-out: Half-Life Period 1 (converted)) was 139 h. For the same compound, the half-life ([3]; period 2, Mean, read-out: Half-Life Period 2 (converted)) was 166 h.

From patent US8409560B2, “Solid dispersion formulations and methods of use thereof” (Zalicus Pharmaceuticals Ltd., priority 2011, dated 2013)
